In brackets after ≈: the same amount, converted by molar mass.
How the values were obtained:
Experiment in all cases: Agar incorporation test, MIC
Assay type in all cases: cell-based
[1] = tested on: Escherichia coli NCTC 8196; settings: NCTC8196; Table 1; Escherichia coli NCTC 8196; agar incorporation; read-out: Minimum Inhibitory Concentration, EC
Text: (§1) Medium: • Nutrient agar as test agar for bacteria: • Mueller hinton agar to cultivate the aerobic bacteria • Mueller hinton bouillon for obtaining the suspension of microorganisms • Ethanol as solvent • Wilkins-Chalgren agar to cultivate the […] bacteria • Sabouraud glucose agar to cultivate the dermatophytes
(§2) Examples of Test bacteria • Staphylococcus aureusATCC 6538 • Staphylococcus hominis DSM 20330 • Escherichia coli NCTC 8196 • Pseudomonas aeruginosa CIP A-22 • Candida albicans ATCC 10231 • Aspergillus niger ATCC 6275
(§3) Procedure: The test substances are dissolved in ethanol, and a dilution series of the compound of the formula (102) in agar are prepared. • Anaerobic bacteria and dermatophytes are activated on agar-plates, and washes off with Mueller-Hinton bouillon. Aerobic bacteria are activated in Mueller-Hinton bouillon overnight. The test germ suspension are diluted with Mueller-Hinton bouillon to a density of McFarland standard 0.5. • 10 μl of each germ suspension is dropped onto the agar plates containing the test substance, and the plates are then incubated at 37° C. for 2 days. (Aerobic bacteria are incubated at 36° C. for 72 hours, anaerobic bacteria are incubated at 30° C. for 72 hours). As controls, the bacterial suspensions are applied to agar plates without test substances.

[2] = tested on: Candida albicans ATCC 10231; settings: ATCC10231; Table 1; Candida albicans ATCC 10231; agar incorporation; read-out: Minimum Inhibitory Concentration, CA
Text: as §1, §2, §3

[3] = tested on: Aspergillus niger ATCC 6275; settings: ATCC6275; Table 1; Aspergillus niger ATCC 6275; agar incorporation; read-out: Minimum Inhibitory Concentration, AN
Text: as §1, §2, §3

[4] = tested on: Staphylococcus hominis DSM 20328; settings: DSM20328; Table 1; Staphylococcus hominis DSM 20328; agar incorporation; read-out: Minimum Inhibitory Concentration, SH
[5] = tested on: Staphylococcus aureus ATCC 6538; settings: ATCC6538; Table 1; Staphylococcus aureus ATCC 6538; agar incorporation; read-out: Minimum Inhibitory Concentration, SA
Text: as §1, §2, §3

Row | SMILES | MIC [1] | MIC [2] | MIC [3] | MIC [4] | MIC [5]
1 | CCCCc1ccc(Oc2ccccc2)cc1O [(104)] | 30 µg/mL (≈ 124 µM) | 30 µg/mL (≈ 124 µM) | 60 µg/mL (≈ 248 µM) | 30 µg/mL (≈ 124 µM) | –
2 | CCCCCc1ccc(Oc2ccccc2)cc1O [(106)] | 30 µg/mL (≈ 117 µM) | 60 µg/mL (≈ 234 µM) | 60 µg/mL (≈ 234 µM) | 30 µg/mL (≈ 117 µM) | –
3 | Oc1ccccc1Oc1ccccc1 [(107)] | 30 µg/mL (≈ 161 µM) | – | 120 µg/mL (≈ 644 µM) | 30 µg/mL (≈ 161 µM) | –
4 | CCCC(=O)c1ccc(O)c(Oc2ccccc2)c1 [(109)] | 30 µg/mL (≈ 117 µM) | 120 µg/mL (≈ 468 µM) | 120 µg/mL (≈ 468 µM) | 30 µg/mL (≈ 117 µM) | –
5 | O=Cc1ccc(O)c(Oc2ccccc2)c1 [(110)] | 30 µg/mL (≈ 140 µM) | – | – | – | –
6 | Cc1ccccc1Oc1ccccc1O [(113)] | 30 µg/mL (≈ 150 µM) | 120 µg/mL (≈ 599 µM) | 60 µg/mL (≈ 300 µM) | 30 µg/mL (≈ 150 µM) | –
7 | CC(C)(C)c1ccccc1Oc1ccccc1O [(114)] | 30 µg/mL (≈ 124 µM) | 60 µg/mL (≈ 248 µM) | 120 µg/mL (≈ 495 µM) | 30 µg/mL (≈ 124 µM) | –
8 | CCc1ccccc1Oc1ccccc1O [(115)] | 120 µg/mL (≈ 560 µM) | 120 µg/mL (≈ 560 µM) | 120 µg/mL (≈ 560 µM) | 120 µg/mL (≈ 560 µM) | –
9 | Oc1ccc(Oc2ccccc2O)cc1 [(117)] | 60 µg/mL (≈ 297 µM) | – | – | – | –
10 | Cc1ccc(C(C)C)c(Oc2ccc(O)cc2)c1 [(118)] | 50 µg/mL (≈ 206 µM) | 50 µg/mL (≈ 206 µM) | – | 3 µg/mL (≈ 12.4 µM) | 5 µg/mL (≈ 20.6 µM)

Results, then the compound that gave them:

Row | MIC [1] | MIC [2] | MIC [3] | MIC [4] | MIC [5] | SMILES
11 | 30 µg/mL (≈ 131 µM) | 30 µg/mL (≈ 131 µM) | 30 µg/mL (≈ 131 µM) | 30 µg/mL (≈ 131 µM) | – | CCCc1ccc(Oc2ccccc2)cc1O [(105)]
12 | 120 µg/mL (≈ 495 µM) | – | – | 60 µg/mL (≈ 248 µM) | – | CCC(=O)c1ccc(O)c(Oc2ccccc2)c1 [(108)]
13 | – | 30 µg/mL (≈ 124 µM) | 120 µg/mL (≈ 495 µM) | 60 µg/mL (≈ 248 µM) | – | CCC(C)c1ccccc1Oc1ccccc1O (stereo not drawn) [(111)]
14 | – | 60 µg/mL (≈ 263 µM) | 120 µg/mL (≈ 526 µM) | 60 µg/mL (≈ 263 µM) | – | CC(C)c1ccccc1Oc1ccccc1O [(112)]
15 | – | 30 µg/mL (≈ 124 µM) | 30 µg/mL (≈ 124 µM) | 30 µg/mL (≈ 124 µM) | – | CCC(C)c1ccccc1Oc1cccc(O)c1 (stereo not drawn) [(116)]

Reference: US7105577B2, “Antimicrobial method using a hydroxydiphenyl ether compound” (Ciba Specialty Chemicals Corporation, priority 1999, dated 2006)
